± gives the expanded uncertainty stated by the source.
Tests used:
[1] = an = ratio of the nth substance listed; settings: 100 kPa, Liquid, Concentric cylinders viscometry
[2] = 101.33 kPa, Liquid, Concentric cylinders viscometry

SMILES: NC(N)=O [urea] + C[N+](C)(C)CCO.[Cl-]
- viscosity ([1]; 293.2 K, a1 = 2): 1685.8 ± 200 mPa·s
- viscosity ([1]; 298.2 K, a1 = 2): 1012.3 ± 120 mPa·s
- viscosity ([1]; 303.2 K, a1 = 2): 658.5 ± 74 mPa·s
- viscosity ([1]; 308.2 K, a1 = 2): 454.9 ± 51 mPa·s
- viscosity ([1]; 313.2 K, a1 = 2): 333.6 ± 37 mPa·s
- viscosity ([1]; 318.2 K, a1 = 2): 259.8 ± 29 mPa·s
- viscosity ([1]; 323.2 K, a1 = 2): 210.6 ± 23 mPa·s
- viscosity ([1]; 328.2 K, a1 = 2): 179.5 ± 20 mPa·s
- viscosity ([1]; 333.2 K, a1 = 2): 160.8 ± 18 mPa·s
- viscosity ([1]; 338.2 K, a1 = 2): 142.6 ± 16 mPa·s
- viscosity ([1]; 343.2 K, a1 = 2): 129 ± 14 mPa·s
- viscosity ([1]; 348.2 K, a1 = 2): 115.6 ± 13 mPa·s
- viscosity ([1]; 353.2 K, a1 = 2): 106.7 ± 12 mPa·s

SMILES: C[N+](C)(C)CCO.[Cl-] [choline chloride] + OCCO
- viscosity ([1]; 293.2 K, a2 = 2): 60.9 ± 6.6 mPa·s
- viscosity ([1]; 298.2 K, a2 = 2): 51.4 ± 5.6 mPa·s
- viscosity ([1]; 303.2 K, a2 = 2): 44.3 ± 4.8 mPa·s
- viscosity ([1]; 308.2 K, a2 = 2): 38.1 ± 4.1 mPa·s
- viscosity ([1]; 313.2 K, a2 = 2): 33.5 ± 3.6 mPa·s
- viscosity ([1]; 318.2 K, a2 = 2): 29.4 ± 3.2 mPa·s
- viscosity ([1]; 323.2 K, a2 = 2): 26.1 ± 2.8 mPa·s
- viscosity ([1]; 328.2 K, a2 = 2): 23.3 ± 2.5 mPa·s
- viscosity ([1]; 333.2 K, a2 = 2): 21.1 ± 2.3 mPa·s
- viscosity ([1]; 338.2 K, a2 = 2): 19.3 ± 2.1 mPa·s
- viscosity ([1]; 343.2 K, a2 = 2): 17.6 ± 1.9 mPa·s
- viscosity ([1]; 348.2 K, a2 = 2): 16.3 ± 1.8 mPa·s
- viscosity ([1]; 353.2 K, a2 = 2): 15.2 ± 1.6 mPa·s

SMILES: OCC(O)CO [glycerol]
- viscosity ([2]; 296.5 K): 1252 ± 140 mPa·s
- viscosity ([2]; 302.8 K): 673.4 ± 76 mPa·s
- viscosity ([2]; 315.8 K): 260.6 ± 29 mPa·s
- viscosity ([2]; 323.2 K): 148.9 ± 16 mPa·s
- viscosity ([2]; 332.7 K): 97.5 ± 11 mPa·s
- viscosity ([2]; 343.2 K): 51.9 ± 5.6 mPa·s
- viscosity ([2]; 348.2 K): 42.8 ± 4.6 mPa·s
- viscosity ([2]; 354.2 K): 34.9 ± 3.8 mPa·s

From the NIST ThermoML archive (doi:10.1021/acs.jced.6b00680)
